# Results as given in PMC5675618, “Identification and validation of FGFR2 peptide for detection of early Barrett's neoplasia” (Oncotarget, 2017).
# No end group written: not given here. Cy5.5 = near-infrared fluorophore Cy5.5
# B1: SRR*-Cy5.5 (peptide)
# peptide: SRRPASFRTAREGGGSK(Cy5.5)-NH2
# notes: 12-residue peptide selected by phage display (Ph.D.-12 library) against FGFR2-ECD; linker on the C-terminus that carries the Cy5.5; Assembled on rink amide MBHA resin, so the C-terminus is probably an amide; also called FGFR2 peptide; source: synthetic peptide (Fmoc solid-phase synthesis, prep-HPLC, >97%)
# Columns and labels:
# Barrett's neoplasia = settings: topical to mucosal surface, clinic, ref [19], [20], cited from earlier work
# Description: An empiric peptide labeled with FITC was administered topically to the mucosal surface. Early neoplasia was detected with 94% specificity and 96% positive predictive value. Included in the analysis were 28 flat lesions (Paris 0-IIb) that were poorly visualized with white light. […] Peptides have high diversity, and can achieve high specificity with binding affinities on the ...
# [1] = tested on: FGFR2b, AKT, ERK phosphorylation in QhTERT cells; experiment: Western blot, effect of peptide binding on cell signaling, QhTERT cells expressing FGFR2b; format: cell-based, human; settings: 20 min
# Description: (§1) QhTERT cells that overexpress either FGFR2b or FGFR2c were seeded in 12-well flat-bottom plates with 500 μL of serum-free medium for 16 hours. FGF1 (#2232-FA-025, R&D systems) was reconstituted to a concentration of 100 μg/mL using PBS, diluted with 0.1% bovine serum albumin, and added to the cells at final concentrations of 100 ng/mL for 20 min in separate wells. Heparin (# H3149-10KU, Sigma) with final concentration of 100 units/mL was also added to increase stability. In addition, peptides at concentrations of 5 and 100 μM were incubated for 20 min in separate wells. The cells were washed with PBS and lysed in RIPA buffer containing protease inhibitors (#11836170001, Roche, Basel, Switzerland). Lysates were separated by gel electrophoresis, transferred to polyvinylidene difluoride membranes (#ISEQ00010, Millipore), and detected by immunoblotting using an enhanced chemiluminescence system (#RPN2106, GE Healthcare). Anti-FGFR2 antibody (#SC122, Santa Cruz Biotechnology), anti-phospho-FGFR (#3471, Cell Signaling Technology), anti-AKT (#4691P, Cell Signaling Technology), anti-ERK1/2 (#4695P, Cell Signaling Technology), anti-phospho-AKT (pS473; #4060P, Cell Signaling Technology), anti-phospho-ERK1/2 (#4370P, Cell Signaling Technology), and anti-tubulin (#32–2600, Invitrogen) were used as per manufacturer's instructions.
# [2] = tested on: FGFR2c, AKT, ERK phosphorylation in QhTERT cells; experiment: Western blot, effect of peptide binding on cell signaling, QhTERT cells expressing FGFR2c; format: cell-based, human; settings: 20 min
# Description: as §1
# [3] = tested on: QhTERT cells that express FGFR2c; experiment: Competition for binding of SRR^*-Cy5.5 with unlabeled peptide, confocal microscopy; format: cell-based, human; settings: 30 min at 4°C, then 5 μM SRR^*-Cy5.5, 30 min at 4°C
# Description: Specific peptide binding to QhTERT/FGFR2c was validated on competitive inhibition with addition of unlabeled peptide. ~10^3 cells were grown to ~70% confluence on cover glass in triplicate. Unlabeled peptides at concentrations of 0, 50, 100, 150, 250, and 500 μM were incubated with the cells for 30 min at 4°C. The cells were washed and incubated with 5 μM of the target peptide for another 30 min at 4°C. The cells were washed and fixed with 4% PFA for 5 min. The cells were washed with PBS and mounted with ProLong Gold reagent containing DAPI (Invitrogen).
# [4] = Fluorescence spectra of Cy5.5-labeled peptides; format: physicochemical; settings: 10 μM in PBS, excitation λex = 671 nm
# Description: We synthesized the 12 amino acid sequence SRRPASFRTARE (black) and attached the fluorophore Cy5.5 (red) via a GGGSK linker (blue) on the C-terminus, hereafter SRR^*-Cy5.5, Figure 1A. Cy5.5 was chosen for photostability and high quantum yield in the near-infrared (NIR) spectrum. We used a linker to prevent steric hindrance of the peptide by the dye. We then used a structural model (1EV2), [24] […] This domain is the same in either isoform FGFR2IIIb or FGFR2IIIc. We also used this model to develop a scrambled sequence SPSRERTFRARA for a control, Figure 1C. This peptide was also labeled with Cy5.5 via a GGGSK linker, hereafter SPS^*-Cy5.5. For SPS^*-Cy5.5, we calculated Et = −277.37. […] We purified SRR^*-Cy5.5 and […] to >97% on HPLC, and measured an experimental mass-to-charge (m/z) ratio on mass spectrometry of 2385.31 for both peptides that agreed with the expected value, Supplementary Figure 3.
# Figure 1 Peptide specific for FGFR2 Chemical structure is shown for 12 amino acid (aa) peptide sequence (A) SRRPASFRTARE (SRR^*) found to be specific for FGFR2, and (B) scrambled peptide SPSRERTFRARA (SPS^*) used for control. A Cy5.5 fluorophore (red) is attached via a GGGSK linker (blue) to prevent steric hindrance.
# [5] = tested on: QhTERT cells that express FGFR2b; experiment: Confocal fluorescence microscopy, binding to QhTERT cells that express FGFR2b; format: cell-based, human; settings: 1 μM peptide, 10 min at RT; confocal, 63X
# Description: (§2) All human esophageal specimens were obtained with written, informed patient consent per approval and guidelines of the University of Michigan Institutional Review Board (IRB). Human non-dysplastic Barrett's esophagus (BE) cells immortalized with hTert (QhTERT) were obtained from the American Type Culture Collection (ATCC) and cultured in keratinocyte-serum free medium containing bovine pituitary extract and human recombinant EGF (ThermoFisher #17005042). QhTERT cells with stable expression of FGFR2b or FGFR2c were provided (DGB). We cultured these cells with keratinocyte-serum free medium containing bovine pituitary extract and human recombinant EGF (ThermoFisher #17005042) and added 1 μg/mL of puromycin-dihydrochloride (Invitrogen #A11138-03). All cells were cultured at 37°C in 5% CO2, and were passaged using 0.25% EDTA containing trypsin (Mediatech Inc). A hemocytometer was used to determine cell number. Peptide synthesis reagents were obtained from either Anaspec or AAPPTEC with the highest grade available (>99% purity) and used without further purification. Solvents and other chemical reagents were obtained from Sigma-Aldrich, unless otherwise stated.
# (§3) ~10^3 QhTERT/wt, QhTERT/FGFR2b, and QhTERT/FGFR2c cells were grown on cover glass to ~80% confluence. The cells were washed with PBS 1X and incubated with 1 μM of either peptide for 10 min at RT. The cells were then washed 3X in PBS, fixed with 4% paraformaldehyde (PFA) for 5 min, washed 1X with PBS, and then mounted on glass slides with ProLong Gold reagent containing DAPI (Invitrogen). Confocal fluorescence images were collected with Cy5.5 and DAPI filters (Leica Inverted SP5X 2-Photon FLIM confocal microscopes) using a 63X oil-immersion objective. Fluorescence intensities from 3 cells in each of 3 independent images were quantified using custom Matlab (Mathworks) software.
# [6] = tested on: QhTERT cells that express FGFR2c; experiment: Confocal fluorescence microscopy, binding to QhTERT cells that express FGFR2c; format: cell-based, human; settings: 1 μM peptide, 10 min at RT; confocal, 63X
# Description: as §2, §3
# QhTERT wild-type cells = experiment: Confocal fluorescence microscopy, binding to wild-type QhTERT cells; format: cell-based, human; settings: 1 μM peptide, 10 min at RT, 63X
# Description: as §2, with “Peptide synthesis reagents were obtained from either Anaspec or AAPPTEC with the highest grade available (>99% purity) and used without further purification. Solvents and other chemical reagents were obtained from Sigma-Aldrich, unless otherwise stated.” left out
# ~10^3 QhTERT/wt, QhTERT/FGFR2b, and QhTERT/FGFR2c cells were grown on cover glass to ~80% confluence. […] Confocal fluorescence images were collected with Cy5.5 and DAPI filters (Leica Inverted SP5X 2-Photon FLIM confocal microscopes) using a 63X oil-immersion objective. Fluorescence intensities from 3 cells in each of 3 independent images were quantified using custom Matlab (Mathworks) software.
# FGFR2c on QhTERT cells = biological target: T1, FGFR2c on QhTERT cells (UniProt P21802-1 22-821); experiment: flow cytometry on cells; apparent dissociation constant; Cy5.5-labeled peptide 0 to 200 nM in 25 nM increments in PBS, ~10^5 QhTERT/FGFR2c cells, 4°C for 1 hour, mean fluorescence intensity; settings: one partner purified
# T1 construct: fibroblast growth factor receptor 2, isoform IIIc (C-terminus of D3 encoded by exon 9), stably expressed in human QhTERT cells; also called FGFR2IIIc; isoform IIIc of FGFR2
# [7] = FGF1 100 ng/mL, heparin 100 units/mL
# T1 sequence (P21802 22-821): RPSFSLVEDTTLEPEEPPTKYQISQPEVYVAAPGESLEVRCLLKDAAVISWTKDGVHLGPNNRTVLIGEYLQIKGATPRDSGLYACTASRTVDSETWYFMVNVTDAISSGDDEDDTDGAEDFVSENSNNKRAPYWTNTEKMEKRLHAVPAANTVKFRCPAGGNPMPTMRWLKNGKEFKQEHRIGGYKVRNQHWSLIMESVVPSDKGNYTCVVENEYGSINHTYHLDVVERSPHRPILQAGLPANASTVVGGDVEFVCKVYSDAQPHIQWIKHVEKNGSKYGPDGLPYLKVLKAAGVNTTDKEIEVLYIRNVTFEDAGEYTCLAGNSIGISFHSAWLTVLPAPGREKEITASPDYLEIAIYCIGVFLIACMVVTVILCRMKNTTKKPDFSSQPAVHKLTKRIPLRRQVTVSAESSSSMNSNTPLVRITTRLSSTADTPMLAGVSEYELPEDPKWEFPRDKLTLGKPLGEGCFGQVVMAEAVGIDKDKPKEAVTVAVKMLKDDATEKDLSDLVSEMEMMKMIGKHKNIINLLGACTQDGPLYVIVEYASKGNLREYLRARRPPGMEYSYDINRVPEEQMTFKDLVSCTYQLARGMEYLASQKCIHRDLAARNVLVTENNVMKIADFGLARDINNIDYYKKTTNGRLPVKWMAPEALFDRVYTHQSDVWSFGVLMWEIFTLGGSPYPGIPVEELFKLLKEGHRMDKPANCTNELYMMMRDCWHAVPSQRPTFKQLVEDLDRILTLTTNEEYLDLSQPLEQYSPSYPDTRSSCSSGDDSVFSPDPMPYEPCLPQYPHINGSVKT
molecule,measurement,setting,value
"ASYNYDA [empiric peptide labeled with FITC, 7 amino acid peptide ASYNYDA that was labeled with FITC]","positive predictive value, early neoplasia detection",Barrett's neoplasia; included 28 flat lesions,96%
same,"specificity, early neoplasia detection",Barrett's neoplasia; included 28 flat lesions,94%
same,time of binding,Barrett's neoplasia,≤ 5 min
"FGF1: FGF1 (#2232-FA-025, R&D systems), positive control [reference compound]","phosphorylation of FGFR2 (p-FGFR), AKT (p-AKT) and ERK (p-ERK), positive control",[1]; [7],to some extent
same,"phosphorylation of FGFR2 (p-FGFR), AKT (p-AKT) and ERK (p-ERK), positive control",[2]; [7],strong phosphorylation activity
"SPSRERTFRARA [SPS^*, unlabeled scrambled peptide … used for control]",mean fluorescence intensity of SRR^*-Cy5.5 with unlabeled control peptide,"[3]; unlabeled SPS^* at any concentration (0, 50, 100, 150, 250, 500 μM)",No significant difference
SPSRERTFRARA [SPS^*-Cy5.5],peak emission λem,[4],710 nm
same,cell surface fluorescence signal / binding,[5],Minimal binding
same,cell surface fluorescence signal / binding,[6],Minimal binding
same,cell surface fluorescence signal / binding,QhTERT wild-type cells,Minimal binding
"SRRPASFRTARE [SRR^*, unlabeled 12 amino acid peptide … specific for FGFR2]",mean fluorescence intensity of SRR^*-Cy5.5 with unlabeled target peptide,[3]; unlabeled SRR^* at 50 μM and greater vs 0 μM,significant reduction
same,"phosphorylation of FGFR2 (p-FGFR), AKT (p-AKT) and ERK (p-ERK)",[1]; peptide at 5 or 100 μM,no change in phosphorylation
same,"phosphorylation of FGFR2 (p-FGFR), AKT (p-AKT) and ERK (p-ERK)",[2]; peptide at 5 or 100 μM,no change in phosphorylation
B1,Kd,FGFR2c on QhTERT cells,68 nM
